Test results reported in patent US7396529B2, “Compositions and methods for regulating receptor clustering” (Mount Sinai Hospital, priority 2001, dated 2008).
“Also recorded” adds a separate entry of the source.

Assays:
[1] = tested on: TCR clustering in wild type (Mgat5+/+) T cells; experiment: TCR clustering at anti-CD3ε antibody-coated beads after disaccharide pre-incubation; assay type: cell-based, mouse; conditions: for Enhanced TCR clustering observed (cells with clustering / cells examined): Mgat5+/+ T cells pre-incubated 20 min with 2 mM disaccharide, then anti-CD3ε antibody-coated beads 10 min, stained for TCR; for Effect on TCR clustering at the bead interface: wild type ex vivo T cells, 20 min disaccharide pre-incubation, 10 min anti-CD3ε bead stimulation
Procedure: TCR clustering: Six-micron polystyrene beads (Polysciences) in PBS were coated with hamster anti-mouse CD3ε antibody (Clone 2C11; Cederlane) at 2 μg/ml antibody followed by coating with 200 μg/ml bovine serum albumin (BSA). To measure TCR clustering, 5×10^4 T cells were incubated with 2.5×10^5 anti-CD3ε antibody-coated beads in 100 μl RPMI 1640+10% FCS at 37° C. for 10 minutes placed on poly-L-lysine coated cover slips. The cells were fixed with 10% formalin, stained with 2 μg/ml fluorescein isothiocyanate (FITC) labeled anti-TCRα/β antibody (Pharmigen), solubilized with 0.2% Triton X-100, labelled with rhodamine-phalloidin and Hoechst, and then visualized by deconvolution microscopy. […] To measure TCR internalization, purified splenic T cells stimulated with either 0.1 μg/ml^−1 anti-CD3 antibody or with 10 ng/ml PMA for varying lengths of time were harvested and stained with FITC-anti-TCRα/β. PMA concentrations were not limiting as 10, 50 and 100 ng/ml produced similar internalization and cell activation results. To measure actin reorganization, purified splenic T cells, stimulated with 0.1 μg/ml^−1 anti-CD3 for varying lengths of time, were fixed with 4% paraformaldehyde for 10 minutes, washed with PBS and stained with rhodamine-phalloidin and mean fluorescence intensity (MFI) was determined by FACS.

Galectins = conditions: range; 8; read-out: Dissociation constant for galectin binding; cited from earlier work
[2] = tested on: protein tyrosine phosphorylation in T cells; experiment: TCR signaling: phosphotyrosine Western blot after anti-CD3ε bead stimulation; assay type: cell-based, mouse; conditions: for Protein phosphorylation induced by anti-CD3ε antibody coated beads: Mgat5+/+ T cells, disaccharide 1/3 serial dilution from 2.4 mM, 1 min stimulation
EAE = conditions: injected into mice; cited from earlier work
T cell proliferation = conditions: depletion of Mgat5 modified glycans; cited from earlier work

Compound	Enhanced TCR clustering observed (cells with clustering / cells examined) [1]	Effect on TCR clustering at the bead interface [1]	Kd (Galectins) [µM]	Protein phosphorylation induced by anti-CD3ε antibody coated beads [2]	other results
OC[C@H]1O[C@@H](O[C@H]2[C@H](O)[C@@H](O)C(O)O[C@@H]2CO)[C@H](O)[C@@H](O)[C@H]1O (stereo partly shown) [lactose]	9/10	increased TCR clustering at the bead interface; also recorded: produced a phenocopy of Mgat5^−/− TCR clustering	~100	enhanced protein phosphorylation	Signaling in Mgat5−/− T cells ([2]; Mgat5−/− T cells, data not shown): did not enhance signaling
N[C@H]1C(O)O[C@H](CO)[C@@H](O[C@@H]2O[C@H](CO)[C@H](O)[C@H](O)[C@H]2O)[C@@H]1O (stereo partly shown) [Lactosamine]			~100	enhanced protein phosphorylation	
galectin-1: exogenously added beta-galactoside-binding lectin					Effect on pathology of EAE (EAE): suppresses the pathology of EAE
O[C@H]1[C@H]2[C@H](O)CCCN2C[C@H]1O [swainsonine]					Effect on antigen-dependent T cell proliferation (T cell proliferation): potentiates antigen-dependent T cell proliferation
OC[C@H]1O[C@@](CO)(O[C@H]2O[C@H](CO)[C@@H](O)[C@H](O)[C@H]2O)[C@@H](O)[C@@H]1O [sucrose]	1/10	not altered		no effect	
OC[C@H]1O[C@H](O[C@H]2[C@H](O)[C@@H](O)[C@H](O)O[C@@H]2CO)[C@H](O)[C@@H](O)[C@@H]1O [maltose]				no effect	
